This note sets out measurements from patent US20230132973A1, “DIHYDRO-SPIRO[INDOLINE-3:1'-iSOQUINOLIN]-2-ONES AS ANTIMALARIAL AGENTS” (The University of Buea, priority 2020, published 2023).

The structures appear in SMILES notation. pEC50: −log10 of the molar value. Entries after “also recorded” stand apart in the source; their conditions may differ.

Data set [1] deals with vacuolar lipid dynamics in P. falciparum. Nature of the data set: Effect on vacuolar lipid dynamics (Oil Red O staining). It is filed as cell-based, Plasmodium falciparum. The conditions noted are these: trophozoite stage parasites, 24 h. As to the method:
Because cellular vacuolation may result from perturbation of intracellular lipid content, we investigated the effect of (±)-moxiquindole on vacuolar lipid dynamics using fluorescent Oil red O as lipid stain.
The effect of the compounds on intracellular lipid dynamics was assessed by measurement of intracellular lipid content using Oil Red O. Briefly, early rings or late trophozoite stage parasites (30 hpi) were treated with the compounds or controls for 24 h under regular culture conditions. Following treatment, inhibitors were removed by centrifugation at 2500 rpm for 5 min and pellets were washed in equal volumes of 1×PBS. The parasites were fixed with 4% paraformaldehyde for 30 min at room temperature and pelleted at 2500. Three volumes of Oil Red O (ORO) stock solution (5 mg/mL in 100% isopropanol) were diluted in two volumes of distilled water and filtered prior to use. About 100 μL of the ORO were added to parasite pellets in the tube and incubated for 30 minutes. Parasites were pelleted and washed twice in distilled water. Thereafter, parasites were deposited on pre-cleaned coverslips and air dried. Dried coverslips were mounted in DAPI antifade reagent onto cleaned slides, air dried and viewed under a 100× oil immersion lens and images acquired using a Leica DM1000 fluorescence microscope suite (LAS version 4.5).

For data set [2], the system named is asexual blood stages of P. falciparum. Nature of the data set: Life cycle stage specific action by microscopy of Giemsa-stained thin smears. The format is cell-based, Plasmodium falciparum. To be noted: 10 μM, 24 h, listed as (±)-moxiquindole. As to the method: The life cycle stage specific action of (±)-moxiquindole was determined by treatment of parasites at different time points followed by microscopic analysis of Giemsa-stained thin blood smears. Stage proportions were calculated for each asexual parasite stage in the drug treated wells relative to the same stage in the negative control wells.
The inhibitory effects of active compounds or reference drugs on parasite development and schizont rupture were determined by quantitative light microscopy as previously described (Lee et al., 2015). Briefly, synchronized cultures (1.5% hematocrit and 3% parasitemia) at different time-points (early rings, mid trophozoites and schizonts) were treated with either test compound or controls at 10 μM final concentration for 24 h under regular culture conditions. Following treatment, Giemsa-stained thin smears were prepared and parasites were counted in 1,000 erythrocytes per treatment. Stage proportions in test wells relative to solvent control wells were calculated and used to assess the in vitro effects of each compound on trophozoites and schizont development as well as merozoite egress and invasion.

Data set [3] has as its system Normal African Green Monkey Kidney Epithelial (Vero) cells. Nature of the data set: MTT cell proliferation (cytotoxicity) assay, Vero cells. The format is cell-based. The procedure: By principle, the soluble MTT is reduced to an insoluble colored formazan product by mitochondrial succinate dehydrogenase in viable cells. Normal African Green Monkey Kidney Epithelial (Vero) and the Human Liposarcoma (SW872) cells were maintained in MEM supplemented with 10% FBS, 1% Glutamine and 1% penicillin-streptomycin. Confluent cells were trypsinized and seeded at a density of 2500 cells/well (total volume 90 μL) in 96-well plates and incubated for 24 h prior to drug treatment. Two-fold serial dilutions of the compounds (100-0.0488 μM) were added to the plates and incubated under humidified conditions at 37° C. for 48 h. Absorbance of the formed formazan product was measured at 550 nm wavelength using a SUNRISE microtiter plate reader. […] Selectivity indices (SI=CC50/EC50) were calculated as an indication of toxicity relative to the observed antiplasmodial activity.

Data set [4] concerns multidrug resistant strain Dd2. Nature of the data set: SYBR green I-based parasite growth inhibition assay, Dd2 strain. The format is cell-based, Plasmodium falciparum.

For orientation: CC50 means the concentration giving 50% cytotoxicity. One may read the pEC50 as the EC50 on a negative log10 scale, so that one unit is a factor of ten. As for `COc1cc2c(cc1OC)C1(NCC2)C(=O)Nc2ccc(Cl)cc21` (centres unmarked) [Compound 8b], in data set [1], the “neutral lipid bodies / vacuolar lipid uptake (Oil red O)” value is “devoid of neutral lipid bodies”. Besides, the “stage specific action on asexual blood stages (ring, trophozoite, schizont)” value in data set [2] (treated at early ring, mid-trophozoite or mid-schizont) was “multi-stage active; also recorded: exhibits inhibitory activities against ring-to-trophozoite development, trophozoite-to-schizont development and schizont rupture”. Further, the “vacuolation in treated parasites” value in data set [2] (Giemsa-stained thin smears) is “abnormal vacuolation; also recorded: induced vacuolation in parasites”. For the same molecule, in data set [3] (MTT), the CC50 was > 100 µM. The cell viability result in data set [3] (up to 100 μM compound concentration, 48 h) is “no significant decrease in cell viability”. This molecule also displayed a cross-resistance index in data set [4] of 0.935. Also, the pEC50 in data set [4] (Pf Dd2) was 5.76; in data set [4] (Pf Dd2, 0.078 μM to 10 μM), 5.76.
